Four molecules from the NIST ThermoML archive (doi:10.1016/j.jct.2016.02.008) can be followed below.

Broadly, the mass density is mass per unit of volume.

± gives the expanded uncertainty stated by the source.

The conditions of series [1]: Crystal; for mass density: 298.15 K, 101.33 kPa, measuring the mass and volume of a pellet; for Normal melting temperature: DTA.
The nature of series [2]: Molar enthalpy of transition or fusion. The settings on record: Crystal; DSC.
Series [3] can be described thus: molar heat capacity at constant pressure. The settings on record: 298.15 K; 101.33 kPa; Crystal; Small sample (50 mg) DSC.

For `O=C(O)c1cc2ccccc2o1` [benzofuran-2-carboxylic acid], in series [1], the mass density came out at 1340 ± 60 kg/m3 and the Normal melting temperature was 196.7 ± 0.6 °C. In addition, the “Molar enthalpy of transition or fusion” value in series [2] was determined as 6.49 ± 0.155 kcal/mol. Besides, the “molar heat capacity at constant pressure” value in series [3] is on record as 184.8 ± 3.9 J/K/mol.

As for `O=C(O)c1cc2ccccc2[nH]1` [indole-2-carboxylic acid], the Normal melting temperature in series [1] was found to be 210.0 ± 0.8 °C. Moreover, the “Molar enthalpy of transition or fusion” value in series [2] amounted to 5.49 ± 0.153 kcal/mol. The “molar heat capacity at constant pressure” value in series [3] was determined as 178.4 ± 5.5 J/K/mol.

Take `O=C(O)c1cc2ccccc2s1` [benzo[b]thiophene-2-carboxylic acid]: in series [1], the mass density is listed as 1490 ± 120 kg/m3 and the Normal melting temperature was 244.6 ± 0.6 °C. In series [2], the “Molar enthalpy of transition or fusion” value was 7.5 ± 0.165 kcal/mol. The “molar heat capacity at constant pressure” value in series [3] was 179 ± 4.6 J/K/mol.

Consider `CC(=O)c1cc2ccccc2o1` [2-acetylbenzofuran], for which the Normal melting temperature in series [1] was 66 ± 0.9 °C. Also, in series [2], the “Molar enthalpy of transition or fusion” value turned out to be 5.09 ± 0.12 kcal/mol. In series [3], the “molar heat capacity at constant pressure” value is recorded as 192.1 ± 5.3 J/K/mol.
